Reference: patent US20210130346A1, “Bromodomain Inhibitors” (AbbVie Inc., priority 2017, published 2021)

Experiments:
BRD4 (BDI_K57-E168) = BRD4 (BDI_K57-E168) (Homo sapiens, UniProt O60885); experiment: TR-FRET bromodomain binding assay, BRD4 first bromodomain (BDI); conditions: mean Ki; 12 nM His tagged BRD4 (BDI_K57-E168), 100 nM Alexa647 probe; Ki calculated from IC50, probe Kd and probe concentration
Experimental: A time-resolved fluorescence resonance energy transfer (TR-FRET) assay was used to determine the affinities of compounds of the Examples listed in Table 1 for each bromodomain of BRD4. […] An Alexa647-labeled BET-inhibitor was used as the fluorescent probe in the assay.
Compound dilution series were prepared in DMSO via an approximately 3-fold serial dilution. Compound dilutions were added directly into white, low-volume assay plates (Perkin Elmer Proxiplate 384 Plus# 6008280) using a Labcyte Echo in conjunction with Labcyte Access and Thermo Multidrop CombinL robotics. Compounds were then suspended in eight microliters (μL) of assay buffer (20 mM Sodium Phosphate, pH 6.0, 50 mM NaCl, 1 mM Ethylenediaminetetraacetic acid disodium salt dihydrate, 0.01% Triton X-100, 1 mM DL-Dithiothreitol) containing His-tagged bromodomain, Europium-conjugated anti-His antibody (Invitrogen PV5596) and Alexa-647-conjugated probe.
After a one-hour equilibration at room temperature, TR-FRET ratios were determined using an Envision multilabel plate reader (Ex 340, Em 495/520).
TR-FRET data were normalized to the means of 24 no-compound controls (“high”) and 8 controls containing 1 μM un-labeled probe (“low”). Percent inhibition was plotted as a function of compound concentration and the data were fit with the 4 parameter logistic equation to obtain IC50s. Inhibition constants (Ki) were calculated from the IC50s, probe Kd and probe concentration.

SKM-1 xenograft tumors = experiment: Growth inhibition of SKM-1 xenograft tumors implanted in mice; assay type: in vivo, female SCID mice; conditions: SCID mice
Experimental: The effect of compounds of the examples to inhibit the growth of SKM-1 xenograft tumors implanted in mice was evaluated. A suspension of cancer cells (5×10^6 per 0.1 mL) prepared in RPMI culture medium (Invitrogen, Carlsbad, Calif.) was diluted 1:1 with a solution of Matrigel™ (BD Biosciences, Franklin Lakes, N.J.) and inoculated subcutaneously into the right hind flank of female SCID (Charles River Labs) mice. Randomization into treatment and vehicle control groups (8/group) occurred when the mean tumor volume reached approximately 250 mm^3. Example 3 was formulated in 10% ethanol, 30% PEG 400, 60% Phosol-50PG. Example 34 was formulated as a nanosuspension (2% low viscosity hydroxypropylcellulose polymer/0.2% sodium dodecyl sulfate in water). Administration of compound or vehicle was initiated on the day following randomization and continued for […]. Tumors were measured twice a week throughout the treatment period using a pair of calipers and tumor volumes were calculated according to the formula V=L×W^2/2 (V: volume, mm^3; L: length, mm. W: width, mm). Tumor growth inhibition was calculated based on the mean tumor volume measured on the first day that the mean volume of the vehicle group exceeded 2000 mm^3 according to the formula: % TGI=100−(100×(mean tumor volume of treatment group/mean tumor volume of control group))

Row | Compound | Ki (BRD4 (BDI_K57-E168)) [µM] | further results
1 | CN1C(=O)[C@]2(C[C@@H]2c2cn(C)c(=O)c3[nH]c(-c4cnn(C)c4)cc23)c2ccccc21 [Example 34, (1S,2R)-1′-methyl-2-[6-methyl-2-(1-methyl-1H-pyrazol-4-yl)-7-oxo-6,7-dihydro-1H-pyrrolo[2,3-c]pyridin-4-yl]spiro[cyclopropane-1,3′-indol]-2′(1H)-one] | 0.441 | % TGI (SKM-1 xenograft tumors; dose 38 mg/kg/d, formulated as a nanosuspension): 42%; % TGI (SKM-1 xenograft tumors; dose 75 mg/kg/d, formulated as a nanosuspension): 74%
2 | CN1C(=O)[C@]2(C[C@@H]2c2cn(C)c(=O)c3[nH]c(C(=O)NC4CC4)cc23)c2ccccc21 [Example 3, N-cyclopropyl-6-methyl-4-[(1S,2R)-1′-methyl-2′-oxo-1′,2′-dihydrospiro[cyclopropane-1,3′-indol]-2-yl]-7-oxo-6,7-dihydro-1H-pyrrolo[2,3-c]pyridine-2-carboxamide] | 3.25 | % TGI (SKM-1 xenograft tumors; dose 5 mg/kg/d, formulated in 10% ethanol, 30% PEG 400, 60% Phosol-50PG): 27%; % TGI (SKM-1 xenograft tumors; dose 15 mg/kg/d, formulated in 10% ethanol, 30% PEG 400, 60% Phosol-50PG): 33%; % TGI (SKM-1 xenograft tumors; dose 45 mg/kg/d, formulated in 10% ethanol, 30% PEG 400, 60% Phosol-50PG): 43%; % TGI (SKM-1 xenograft tumors; dose 100 mg/kg/d, formulated in 10% ethanol, 30% PEG 400, 60% Phosol-50PG): 58%; % TGI (SKM-1 xenograft tumors; dose 150 mg/kg/d, formulated in 10% ethanol, 30% PEG 400, 60% Phosol-50PG): 52%
3 | CN1C(=O)[C@@]2(C[C@H]2c2cn(C)c(=O)c3[nH]c(C(=O)NC4CC(F)(F)C4)cc23)c2ccccc21 (racemic) [Example 5, rac-N-(3,3-difluorocyclobutyl)-6-methyl-4-[(1R,2S)-1′-methyl-2′-oxo-1′,2′-dihydrospiro[cyclopropane-1,3′-indol]-2-yl]-7-oxo-6,7-dihydro-1H-pyrrolo[2,3-c]pyridine-2-carboxamide] | 5.45 | –
4 | CN1C(=O)[C@@]2(C[C@H]2c2cn(C)c(=O)c3[nH]c(-c4ccnc(C(F)(F)F)c4)cc23)c2ccccc21 (racemic) [Example 51, rac-(1R,2S)-1′-methyl-2-{6-methyl-7-oxo-2-[2-(trifluoromethyl)pyridin-4-yl]-6,7-dihydro-1H-pyrrolo[2,3-c]pyridin-4-yl}spiro[cyclopropane-1,3′-indol]-2′(1H)-one] | 4.68 | –
5 | COc1ccc(NC(=O)c2cc3c([C@@H]4C[C@@]45C(=O)N(C)c4ccccc45)cn(C)c(=O)c3[nH]2)cc1 (racemic) [Example 9, rac-N-(4-methoxyphenyl)-6-methyl-4-[(1R,2S)-1′-methyl-2′-oxo-1′,2′-dihydrospiro[cyclopropane-1,3′-indol]-2-yl]-7-oxo-6,7-dihydro-1H-pyrrolo[2,3-c]pyridine-2-carboxamide] | 4.68 | –
6 | CN1C(=O)[C@@]2(C[C@H]2c2cn(C)c(=O)c3[nH]c(-c4cccnc4)cc23)c2ccccc21 (racemic) [Example 47, rac-(1R,2S)-1′-methyl-2-[6-methyl-7-oxo-2-(pyridin-3-yl)-6,7-dihydro-1H-pyrrolo[2,3-c]pyridin-4-yl]spiro[cyclopropane-1,3′-indol]-2′(1H)-one] | 2.62 | –
7 | Cc1ccnc(-c2cc3c([C@@H]4C[C@@]45C(=O)N(C)c4ccccc45)cn(C)c(=O)c3[nH]2)c1 (racemic) [Example 46, rac-(1R,2S)-1′-methyl-2-[6-methyl-2-(4-methylpyridin-2-yl)-7-oxo-6,7-dihydro-1H-pyrrolo[2,3-c]pyridin-4-yl]spiro[cyclopropane-1,3′-indol]-2′(1H)-one] | > 13 | –
8 | Cc1nn(C)cc1-c1cc2c([C@@H]3C[C@@]34C(=O)N(C)c3ccccc34)cn(C)c(=O)c2[nH]1 (racemic) [Example 36, rac-(1R,2S)-2-[2-(1,3-dimethyl-1H-pyrazol-4-yl)-6-methyl-7-oxo-6,7-dihydro-1H-pyrrolo[2,3-c]pyridin-4-yl]-1′-methylspiro[cyclopropane-1,3′-indol]-2′(1H)-one] | > 13 | –
